Tests used:
mouse 11β-hsd2 = biological target: T1, mouse 11β-hsd2 (Mus musculus, UniProt P51661); assay: 11β-hsd2 activity in mouse kidney homogenates (corticosterone to 11-dehydrocorticosterone); assay type: biochemical
T1 construct: The determination of 11β-hsd2 activity in mouse kidney homogenates; from tissue; host or cells: kidney of adult male C57BL6 mice
T1 sequence (P51661 1-386): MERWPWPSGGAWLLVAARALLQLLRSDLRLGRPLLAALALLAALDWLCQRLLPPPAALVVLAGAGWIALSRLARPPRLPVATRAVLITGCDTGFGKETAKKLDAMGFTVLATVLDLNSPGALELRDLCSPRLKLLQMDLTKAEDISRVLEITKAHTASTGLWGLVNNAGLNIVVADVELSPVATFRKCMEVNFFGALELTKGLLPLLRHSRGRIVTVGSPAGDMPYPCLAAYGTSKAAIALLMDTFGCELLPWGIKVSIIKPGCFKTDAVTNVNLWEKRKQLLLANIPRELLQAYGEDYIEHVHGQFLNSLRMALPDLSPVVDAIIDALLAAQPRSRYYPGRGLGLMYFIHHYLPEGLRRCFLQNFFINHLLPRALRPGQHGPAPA
Method: The determination of 11β-hsd2 activity in mouse kidney homogenates was conducted as described earlier ([41]). Briefly, for homogenate preparation, kidneys from adult male mice (C57BL6) were snap-frozen and sonicated in homogenization buffer [250 mM sucrose, 10 mM HEPES (pH 7.4); 900 μl for 100 mg of tissue]. Then, the homogenate was centrifuged (2,000 g, 4°C for 10 min) and the total protein concentration determined. The enzymatic reaction was assessed using 0.075 mg/ml total protein of the kidney homogenate in incubation buffer [300 mM NaCl, 20 mM Tris/HCl, 1 mM EDTA, 10% glycerol (pH 7.7)], different concentrations of oxysterols, 50 nM of corticosterone (containing 50 nCi [1,2,6,7-^3H] corticosterone), and 500 μM NAD^+ at 37°C for 20 min. Corticosterone and 11-dehydrocorticosterone were separated using TLC. Substrate conversion was determined by scintillation counting. Data (mean ± SD) were normalized to vehicle control (DMSO) and obtained from at least three independent experiments.

RORγ = biological target: T2, RORγ (Homo sapiens, UniProt P51449); assay: RORγ reporter gene assay in doxycycline-inducible RORγ CHO Tet-on cells transfected with 11β-HSD1/H6PDH, 11β-HSD2 or pcDNA3; assay type: cell-based; set-up: only weakly by 7k27OHC when full-length receptors are considered [([31]), present study]; expressed in transfected cells
T2 sequence (P51449 1-518): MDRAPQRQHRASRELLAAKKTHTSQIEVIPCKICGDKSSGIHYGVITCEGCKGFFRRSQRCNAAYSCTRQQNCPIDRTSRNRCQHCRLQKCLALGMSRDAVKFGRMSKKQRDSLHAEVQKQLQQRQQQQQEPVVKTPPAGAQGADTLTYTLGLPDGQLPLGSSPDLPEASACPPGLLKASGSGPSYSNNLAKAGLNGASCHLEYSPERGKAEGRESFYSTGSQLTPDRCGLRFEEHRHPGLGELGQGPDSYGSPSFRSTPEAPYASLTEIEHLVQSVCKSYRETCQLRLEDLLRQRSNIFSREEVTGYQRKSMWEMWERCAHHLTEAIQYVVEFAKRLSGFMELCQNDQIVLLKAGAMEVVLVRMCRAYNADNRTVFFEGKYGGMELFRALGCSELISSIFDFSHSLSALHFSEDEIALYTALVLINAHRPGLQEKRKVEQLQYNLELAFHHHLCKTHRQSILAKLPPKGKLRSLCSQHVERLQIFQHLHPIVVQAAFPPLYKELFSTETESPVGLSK
Method: Doxycycline-inducible RORγ CHO Tet-on cells were transfected with 11β-HSD1/H6PDH, 11β-HSD2. or pcDNA3 using the electroporation method according to the manufacturer’s protocol (Neon™ transfection system; Invitrogen). Briefly, the cells […]). Three electric pulses of 1,620 V and 10 ms were delivered to the cells using a 100 μl gold tip. Then, the cells (20,000 cells per well) were seeded in 96-well plates using culture medium without antibiotics and incubated for 16 h. The medium was replaced with medium containing charcoal-dextran stripped FBS for 1.5 h before treating the cells with different concentrations of oxysterols. After 6 h, 1.25 μM of the inverse agonist SR2211 was added to the treatment for another 2 h. To induce ROR expression, the cells were additionally subjected to 1 μM doxycycline for a further 16 h. The cells were lysed in 20 μl Tropix lysis solution supplemented with 0.5 mM dithiothreitol. RORγ-mediated activation of the luciferase reporter was measured in 10 μl lysate by adding 100 μl of D-luciferin-firefly substrate solution. Data (mean ± SD) were obtained from at least three independent experiments.

[1] = 11β-HSD2 expressing RORγ Tet-on cells

Structure (SMILES)	IC50 (mouse 11β-hsd2; 50 nM corticosterone, 20 min, 37°C, read-out: IC50, mouse 11β-hsd2 activity (corticosterone to 11-DHC))	Reversal of the inhibitory effect of SR2211 on RORγ reporter (in words) (RORγ; [1])	Reversal of the inhibitory effect of SR2211 on RORγ reporter (in words) (RORγ; coexpression of RORγ with 11β-HSD1)	Inhibition of mouse 11β-hsd2 activity (in words) (mouse 11β-hsd2)	Effect on RORγ reporter (in words) (RORγ; only control plasmid expressed, data not shown)
CC(CO)CCC[C@@H](C)[C@H]1CC[C@H]2[C@@H]3C(=O)C=C4C[C@@H](O)CC[C@]4(C)[C@H]3CC[C@]12C (stereo partly shown) [7k27OHC, 7-keto,27-hydroxycholesterol]	1650 ± 400 nM	weak response	capable of reversing the inhibitory effect of the RORγ antagonist, SR2211, in the same manner as 7β27OHC		
C[C@@H](CO)CCC[C@@H](C)[C@H]1CC[C@H]2[C@@H]3[C@H](O)C=C4C[C@@H](O)CC[C@]4(C)[C@H]3CC[C@]12C [7α27OHC]				Neither 7β27OHC nor 7α27OHC inhibited	same weak concentration-dependent effect as 7k27OHC
CC(CO)CCC[C@@H](C)[C@H]1CC[C@H]2[C@@H]3[C@@H](O)C=C4C[C@@H](O)CC[C@]4(C)[C@H]3CC[C@]12C (stereo partly drawn) [7β27OHC, 7β,27-dihydroxycholesterol]		could not restore RORγ activity		Neither 7β27OHC nor 7α27OHC inhibited	

— publication PMC6718442, “11β-Hydroxysteroid dehydrogenases control access of 7β,27-dihydroxycholesterol to retinoid-related orphan receptor γ” (Journal of Lipid Research, 2019)
